Where two headings read alike, the source gives them in different places. Each block holds one compound with its values, some of them ahead of it. Ends that are not written are not given here.
Experiments:
[1] = tested on: Chronic Myeloid Leukemia (CML); settings: cited from earlier work
[2] = biological target: T1, protein-tyrosine kinase p60c-src (Homo sapiens, UniProt P12931); experiment: Solution kinase assay, phosphorylation of GST-[…]; assay type: biochemical; settings: solution reaction, Lineweaver-Burk plot
T1 construct: purchased Calbiochem, San Diego, Calif
Experimental: Solution protein kinase assays with protein-tyrosine kinase p60^c-src (Calbiochem, San Diego, Calif.) were carried out according to the manufacture's instructions. Briefly, reaction mixtures containing 1.5 μl of 50% glycerol, 1.5 μl of ATP mix (0.15 mM ATP, 30 mM MgCl2), 0.3 units of p60^c-src in 1.5 μl kinase dilution buffer (50 mM HEPES, 0.1 mM EDTA, 0.015% Brij 35, 0.1 mg/ml BSA, 0.2% β-mercaptoethanol, pH 7.5), and 1 μl GST-[…] (SEQ. ID. NO: 1) solution (50 mM HEPES, 0.1 mM EDTA, 0.015% Brij 35, pH 7.5 containing anywhere from 0 to 600 ng of GST-[…]) were incubated at 37° C. for times ranging from 10 minutes to 5.5 hours. After each kinase reaction the samples were mixed with 94.5 μl of TBS (10 mM Tris-HCl, 100 mM NaCl, pH 7.5) containing 1% SDS and heated to 97° C. for 5 minutes. Upon cooling, the samples were transferred to a nitrocellulose membrane using a Dot Blot apparatus (Biorad, Hercules, Calif.) following the manufacture's instructions. Prior to assembly of the Dot Blot apparatus, the membrane was wetted in TBS for 10 minutes. The apparatus was then assembled and each well was washed twice with 100 μl of TBS. 50 μl of the kinase reaction product was applied to each well. After application of the reaction mixture the wells were washed twice with 200 μl of TBS containing 0.05% Tween-20. […]

[3] = biological target: T1, protein-tyrosine kinase p60c-src; experiment: Surface kinase assay, phosphorylation of hydrogel-immobilized GST-[…]; assay type: biochemical
Experimental: Surface protein kinase assays were carried out in a fashion similar to the solution kinase assays. Glass slides containing 0 to 600 ng of GST-[…] (SEQ. ID. NO: 1) per 1 μl polyacrylamide spot were prepared as above and stored overnight in kinase assay buffer (50 mM HEPES, 0.1 mM EDTA, 0.015% Brij 35, pH 7.5) at 4° C. Just prior to the kinase assay, these slides were dried under a stream of compressed air. […] The protein kinase reaction mixture containing 1.5 μl of 50% glycerol, 1.5 μl of ATP mix, and 0.3 units of p60^c-src in 1.5 μl of kinase dilution buffer was placed on top of each polyacrylamide spot and the slides were incubated in a humidity chamber at 37° C. for 10 minutes to 5.5 hours.
In the case of phosphotyrosine detection, a similar procedure was followed with the substitution of TBST for PBST as the buffer and BSA for milk as the blocking agent. These substitutions were required to reduce the nonspecific binding of the secondary antibody used in this detection scheme. […] The slides were then stored in TBST until detection.
In the case of the nitrocellulose membranes, 20 ml of ECL detection reagent was used per membrane.

[4] = biological target: T2, v-Abl tyrosine kinase (Abelson murine leukemia virus, UniProt P00521); experiment: v-Abl phosphorylation of hydrogel-immobilized Abl peptide, MALDI mass spectrometry detection; assay type: biochemical; settings: 3 hours, 30° C., estimated from MALDI spectrum FIG. 24B
T2 sequence (P00521 1-746): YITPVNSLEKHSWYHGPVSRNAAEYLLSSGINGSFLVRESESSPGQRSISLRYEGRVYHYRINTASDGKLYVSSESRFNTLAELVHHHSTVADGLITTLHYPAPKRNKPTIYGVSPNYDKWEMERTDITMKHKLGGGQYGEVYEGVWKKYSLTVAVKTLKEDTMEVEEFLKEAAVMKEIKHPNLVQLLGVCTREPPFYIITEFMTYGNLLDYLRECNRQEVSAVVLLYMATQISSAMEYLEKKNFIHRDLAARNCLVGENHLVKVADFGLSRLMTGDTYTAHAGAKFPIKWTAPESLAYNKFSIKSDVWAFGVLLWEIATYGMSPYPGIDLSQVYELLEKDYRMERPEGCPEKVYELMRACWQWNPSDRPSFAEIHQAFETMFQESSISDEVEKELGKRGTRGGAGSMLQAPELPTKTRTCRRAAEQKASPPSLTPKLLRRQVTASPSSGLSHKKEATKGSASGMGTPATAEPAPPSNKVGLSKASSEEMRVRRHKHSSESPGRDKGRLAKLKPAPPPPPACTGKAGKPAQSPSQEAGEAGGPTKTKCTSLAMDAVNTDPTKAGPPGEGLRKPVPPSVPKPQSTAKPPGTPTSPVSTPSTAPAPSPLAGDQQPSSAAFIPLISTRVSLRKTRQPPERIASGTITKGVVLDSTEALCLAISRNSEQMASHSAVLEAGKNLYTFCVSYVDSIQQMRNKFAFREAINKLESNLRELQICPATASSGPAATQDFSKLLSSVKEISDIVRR
Source text: The acrylic-labeled peptides were then incorporated into peptide-acrylamide copolymer hydrogels as described in the previous examples. Briefly recapping, individual peptide acrylamide copolymer hydrogel spots were attached to stainless steal MALDI target plates (16) (Applied Biosystems, Foster, Calif.) and acrylic-functionalized glass slides.
The peptide-acrylamide copolymer hydrogels were then subjected to enzyme-mediated phosphorylation reactions. Substrates containing peptide-acrylamide copolymer hydrogels were washed by sonication in approximately 20 ml of H2O for 10 mm and dried under compressed air. The substrates were then reconstituted in a v-Abl reaction mixture and incubated at 30° C. in a saturated environment for 3 hours. […] Following the phosphorylation reaction, the solid substrates were sonicated twice in approximately 20 ml of H2O for 10 mm and dried under compressed air.
After the phosphorylation reactions, the copolymer hydrogels were subjected to MALDI mass spectrometry analysis. Stainless steel MALDI target plates and glass slides containing peptide-acrylamide copolymer hydrogels were analyzed on an ABI Voyager 4700 MALDI-TOF/TOF mass spectrometer (Applied Biosystems). […] The samples were then analyzed in linear positive, linear negative, reflector positive, and reflector negative modes to detect the phosphorylated samples.

[5] = biological target: T3, Bcr-Abl (K562 cell lysate) (Homo sapiens, UniProt P00519); experiment: Array-based K562 cell lysate kinase assay on GST-Crkl substrates immobilized in polyacrylamide hydrogels, ECL phosphotyrosine detection; assay type: biochemical; settings: for IC50: GST-Crkl (SH3) 165 ng/mm^2, 2 h, inhibitor 100 nM to 1 mM, read-out: IC50 for inhibition of Bcr-Abl activity, inhibitor screen; for Inhibition of Bcr-Abl activity at 100 μM / Inhibition of Bcr-Abl activity at 1 mM / Inhibition of Bcr-Abl activity over the range studied: GST-Crkl (SH3), 2 h; for Inhibition of Bcr-Abl activity at 100 μM: 100 μM inhibitor; for Inhibition of Bcr-Abl activity at 1 mM: 1 mM inhibitor; for Inhibition of Bcr-Abl activity over the range studied: 100 nM to 1 mM inhibitor
T3 construct: Source of Bcr-Abl tyrosine kinase: K562 cells (American Type Culture Collection, Manassas, Va.); endogenous in cells; host or cells: K562 cells (ATCC), clarified total cell lysate; the other entry of the earlier key: BCR (P11274, Breakpoint cluster region protein)
T3 sequence (P00519 with tags, fused parts or gaps): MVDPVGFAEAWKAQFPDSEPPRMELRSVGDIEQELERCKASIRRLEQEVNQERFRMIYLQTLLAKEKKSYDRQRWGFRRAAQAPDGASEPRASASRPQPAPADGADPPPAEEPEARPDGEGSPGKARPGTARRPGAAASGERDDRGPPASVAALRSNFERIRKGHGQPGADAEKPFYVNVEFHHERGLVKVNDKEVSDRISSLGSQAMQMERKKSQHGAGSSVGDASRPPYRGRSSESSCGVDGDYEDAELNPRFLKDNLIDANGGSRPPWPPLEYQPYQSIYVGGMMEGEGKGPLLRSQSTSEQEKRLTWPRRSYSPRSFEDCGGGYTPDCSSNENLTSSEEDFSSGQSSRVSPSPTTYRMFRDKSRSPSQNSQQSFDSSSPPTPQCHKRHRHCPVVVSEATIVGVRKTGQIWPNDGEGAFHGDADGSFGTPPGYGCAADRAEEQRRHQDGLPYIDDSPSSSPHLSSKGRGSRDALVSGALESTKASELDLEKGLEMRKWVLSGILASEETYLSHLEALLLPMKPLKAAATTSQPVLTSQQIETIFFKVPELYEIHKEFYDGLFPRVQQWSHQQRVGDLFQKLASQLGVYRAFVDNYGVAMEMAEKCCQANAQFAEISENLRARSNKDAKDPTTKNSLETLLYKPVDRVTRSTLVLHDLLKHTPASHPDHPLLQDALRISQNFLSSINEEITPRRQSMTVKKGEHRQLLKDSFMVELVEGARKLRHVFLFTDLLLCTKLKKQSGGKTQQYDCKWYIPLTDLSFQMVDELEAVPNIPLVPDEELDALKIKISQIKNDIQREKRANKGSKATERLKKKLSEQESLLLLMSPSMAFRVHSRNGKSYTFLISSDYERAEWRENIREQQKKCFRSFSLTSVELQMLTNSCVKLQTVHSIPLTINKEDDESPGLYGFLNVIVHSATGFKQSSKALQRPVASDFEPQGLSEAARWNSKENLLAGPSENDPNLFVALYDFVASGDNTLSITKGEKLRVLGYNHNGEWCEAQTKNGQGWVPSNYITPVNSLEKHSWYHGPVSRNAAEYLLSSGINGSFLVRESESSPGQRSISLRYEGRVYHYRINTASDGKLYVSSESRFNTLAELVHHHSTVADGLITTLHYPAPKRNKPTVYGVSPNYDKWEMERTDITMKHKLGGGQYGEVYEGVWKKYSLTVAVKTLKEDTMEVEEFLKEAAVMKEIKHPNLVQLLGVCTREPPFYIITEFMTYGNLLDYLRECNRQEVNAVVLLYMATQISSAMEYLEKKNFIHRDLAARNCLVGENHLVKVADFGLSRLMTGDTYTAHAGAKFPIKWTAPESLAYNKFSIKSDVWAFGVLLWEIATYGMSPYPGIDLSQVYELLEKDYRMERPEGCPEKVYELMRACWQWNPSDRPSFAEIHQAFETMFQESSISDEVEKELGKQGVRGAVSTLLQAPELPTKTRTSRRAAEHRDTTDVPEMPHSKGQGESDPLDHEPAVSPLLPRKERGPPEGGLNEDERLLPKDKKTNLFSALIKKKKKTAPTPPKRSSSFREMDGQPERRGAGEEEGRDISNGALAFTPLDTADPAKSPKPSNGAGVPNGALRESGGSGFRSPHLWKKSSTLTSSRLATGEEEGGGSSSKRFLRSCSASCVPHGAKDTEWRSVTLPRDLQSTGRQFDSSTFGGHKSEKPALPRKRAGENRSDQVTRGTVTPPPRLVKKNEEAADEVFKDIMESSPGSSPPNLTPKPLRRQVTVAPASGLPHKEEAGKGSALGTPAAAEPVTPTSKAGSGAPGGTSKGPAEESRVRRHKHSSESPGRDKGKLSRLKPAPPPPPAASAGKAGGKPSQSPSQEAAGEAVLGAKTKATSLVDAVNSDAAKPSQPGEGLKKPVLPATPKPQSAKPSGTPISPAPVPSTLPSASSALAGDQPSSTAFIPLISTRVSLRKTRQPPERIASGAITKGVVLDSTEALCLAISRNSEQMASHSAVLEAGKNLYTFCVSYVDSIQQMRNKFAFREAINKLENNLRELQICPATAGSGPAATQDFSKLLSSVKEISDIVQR
Experimental: Preparation of K562 and HL60 Cell Lysates: K562 and HL60 cells (ATCC, Manassas, Va.) were cultured at 37° C. and 5% CO2 in RPMI-1640 media (Cambrex Bio Science, Walkersville, Md.) containing 100 units/ml penicillin, 100 μg/ml streptomycin, and 10% FBS. For lysis, cells were resuspended at 5×10^7 cells/ml in lysis buffer (42.3 mM HEPES, 126 mM NaCl, 1.27 mM MgCl2, 0.85 mM EDTA, 84.5 mM NaF, 8.45 mM sodium pyrophosphate, 0.169 mM sodium orthovanadate, 1 mM PMSF, 0.95% Triton X-100, 9.5% glycerol, 4% 25× complete protease inhibitor, pH 7.4) and incubated on ice for 20 min. The total cell lysate was then clarified by spinning at 1500 rpm for 10 min. Total protein concentration was determined via a Pierce BCA protein assay kit (Pierce, Rockford, Ill.) and cell lysates were stored at −80° C. until further use.
Fabrication of Protein Arrays: Glass slides were acrylic-functionalized and GST-Crkl fusion proteins were acrylic-labeled as described in the previous Examples. Briefly, fusion proteins were labeled on primary amines by reaction with 6-((acrylo)amino) hexanoic acid, succinimidyl ester (Molecular Probes, Eugene, Oreg.) and clean glass slides were functionalized via reaction with (3-acryloxypropyl)-trimethoxysilane (Gelest, Tullytown, Pa.).
Following functionalization of the glass slides, a thin layer of 18.8% polyacrylamide gel was attached to the glass surface. Forty μl of a mixture containing 125 μl 1.5 M Tris, pH 8.8; 285 μl 33% acrylamide mix (0.86 g N,N′-methylenebisacrylamide (Bis) and 32.14 g acrylamide in a total volume of 100 ml); 5 μl 10% ammonium persulfate (APS); 75 μl 100% glycerol; 0.5 μl N,N,N′,N′-tetramethylethylenediamine (TEMED); and 9.5 μl water was sandwiched between an acrylic-functionalized glass slide and a clean glass plate and allowed to polymerize in a N2 environment at room temperature for 30 min. The glass plate was then removed and 1 μl protein spots were polymerized on top of the 18.8% acrylamide base layer from the following mixture: 6.25 μl 1.5 M Tris, pH 8.8; 3 μl 33% acrylamide mix; 0.5 μl 10% APS; 3.75 μl 100% glycerol; 0.1 μl TEMED; 0 to 7.5 μl acrylic-labeled GST-Crkl protein solution; and water to a total volume of 25 μl. Additionally, 3 μl spacer spots of the above mixture without protein were added on the exterior corners of the protein array for the subsequent creation of a reaction chamber as described below. After attachment of the protein-acrylamide copolymer spots the slides were washed by briefly dipping into approximately 250 ml of TBST (10 mM Tris-HCl, 100 mM NaCl, 0.1% Tween-20, pH 7.5) followed by a 15 minute and two 5 minute washes with slight agitation in approximately 20 ml of TBST. Slides were then washed by briefly dipping into approximately 250 ml of water followed by two 5 minute washes with slight agitation in approximately 20 ml of water, before being stored overnight at 4° C. in Abl kinase assay buffer (50 mM Tris-HCl, 10 mM MgCl2, 100 μM EDTA, 1 mM DTT, 0.015% Brij 35, 100 μg/ml BSA, pH 7.5).
Array-Based Kinase Assays: Just prior to the kinase assay, the glass slides were removed from the Abl kinase assay buffer and dried under a stream of compressed air. Careful attention was paid to make sure that only the bare portions of the slide were dried and the polyacrylamide spots and polyacrylamide base layer remained hydrated. Using the 3 μl spacer spots, a reaction chamber was then created by suspending a clean glass slide over top of the 1 μl protein-acrylamide copolymer hydrogel spots. […] Aliquots (250 μl) of these kinase reaction mixtures were then applied to each reaction chamber and the reactions allowed to proceed for 30 min to 5 h at 30° C. in a saturated environment. After the reaction, the glass slide used to create the reaction chamber was removed and the protein array was washed by briefly dipping into approximately 250 ml TBST followed by a 15 minute and two 5 minute washes with slight agitation in approximately 20 ml of TBST.

Compound: Cc1ccc(NC(=O)c2ccc(CN3CCN(C)CC3)cc2)cc1Nc1nccc(-c2cccnc2)n1 [Glivec]
Complete cytogenetic remission ([1]; CML patients): 41 % of patients
Side effects ([1]; CML patients): much milder side effects

Compound: GST-EEEIYGEFE: GST-peptide fusion (SEQ. ID. NO: 1) carrying the consensus sequence for c-Src tyrosine phosphorylation ({GST}-EEEIYGEFE)
Vmax, phosphorylation by c-Src in solution [2]: 8.1±3.1 arbitrary units
Km ([2]; read-out: Km, phosphorylation by c-Src in solution): 2.7 ± 1 µM
Vmax, phosphorylation by c-Src of surface-immobilized substrate ([3]; surface reaction, polyacrylamide hydrogel spot, Lineweaver-Burk plot): 9.7±0.63 arbitrary units
Km ([3]; surface reaction, polyacrylamide hydrogel spot, Lineweaver-Burk plot, read-out: Km, phosphorylation by c-Src of surface-immobilized substrate): 0.36 ± 0.033 µM
Km of surface reaction lower than in solution ([3]; surface vs. solution): approximately 10 fold

Compound: H-EAIYAAPFAKKK-OH [Abl peptide]
Extent of phosphorylation [4]: approximately 90%

IC50 [5]: ~100 µM
Inhibition of Bcr-Abl activity at 100 μM [5]: Significant inhibition
Inhibition of Bcr-Abl activity at 100 μM ([5]; listed as AG 1478): slight inhibition
Inhibition of Bcr-Abl activity at 1 mM [5]: Significant inhibition
Compound: COc1cc2ncnc(Nc3cccc(Cl)c3)c2cc1OC [AG1478]

Inhibition of Bcr-Abl activity over the range studied [5]: do not inhibit
Compound: COc1cc2ncc(-c3ccccc3)nc2cc1OC [AG1296]

IC50 [5]: ~100 µM
Inhibition of Bcr-Abl activity at 100 μM [5]: Significant inhibition
Inhibition of Bcr-Abl activity at 100 μM ([5]; listed as PKI 166): slight inhibition
Inhibition of Bcr-Abl activity at 1 mM [5]: Significant inhibition
Compound: C[C@@H](Nc1ncnc2[nH]c(-c3ccc(O)cc3)cc12)c1ccccc1 [PKI166]

Inhibition of Bcr-Abl activity over the range studied [5]: do not inhibit
Compound: N#C/C(=C/c1ccc(O)c(O)c1)C(=O)NCc1ccccc1 [AG490]

Compound: α-interferon
Survival as compared to conventional chemotherapy ([1]; CML patients): prolong survival by about a year
Side effects ([1]; human, in vivo): significant side effects

From patent publication US7588906B2, “Hydrogels for biomolecule analysis and corresponding method to analyze biomolecules” (Wisconsin Alumni Research Foundation, priority 2004, dated 2009)
